Experimental data: the supplement of paper PMC10307832

Columns and labels:
Experiment in all cases: relative viability (nuclei count vs DMSO), 5 days (fraction); higher = more cells survive
[1] = compound: C1/C(=C\C2=CC=CS2)/C(=O)/C(=C/C3=CC=CS3)/C1 + COc1cccc2cc(-c3nc([C@H]4CC[C@H](C(=O)O)CC4)n4ncnc(N)c34)[nH]c12 [OSI-027] (partner 0.5 µM)
Summary of the method: (§1)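 Nuclei were stained with Hoechst during a one-step fixation (final 0.05% Triton X-100, 1% formaldehyde, 1 ug/ml Hoechst) carried out 5 days after dosing, then counted on 4× images. The cells, lung cancer lines in 1536-well plates, had been dosed by pin tool the day after seeding with one drug alone or a fixed anchor-drug dose plus five library-drug doses (not always all listed) in √10 steps. Relative viability is the nuclei count in treated wells divided by that in vehicle wells, and each value is the median of duplicate plates.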

[2] = compound: C1/C(=C\C2=CC=CS2)/C(=O)/C(=C/C3=CC=CS3)/C1 + N=C(N)NC(=N)NCCc1ccccc1 [Phenformin] (partner 250 µM)
Summary of the method: as §1

TPCA-1 + Bortezomib = compound: C1=CC(=CC=C1C2=CC(=C(S2)NC(=O)N)C(=O)N)F [TPCA-1] + CC(C)C[C@H](NC(=O)[C@H](Cc1ccccc1)NC(=O)c1cnccn1)B(O)O [Bortezomib] (partner 0.002 µM)
Summary of the method: as §1

[3] = compound: C[C@]12O[C@H](C[C@]1(O)CO)n1c3ccccc3c3c4c(c5c6ccccc6n2c5c31)CNC4=O [Lestaurtinib] + CC(C)C[C@H](NC(=O)[C@H](Cc1ccccc1)NC(=O)c1cnccn1)B(O)O [Bortezomib] (partner 0.002 µM)
Summary of the method: as §1

Cell Line	relative viability ([1]; first compound 0.2 µM)	relative viability ([1]; first compound 0.6325 µM)	relative viability ([1]; first compound 2 µM)	relative viability ([1]; first compound 6.325 µM)	relative viability ([1]; first compound 20 µM)	relative viability ([2]; first compound 0.2 µM)	relative viability ([2]; first compound 0.6325 µM)	relative viability ([2]; first compound 2 µM)	relative viability ([2]; first compound 6.325 µM)	relative viability ([2]; first compound 20 µM)	relative viability (TPCA-1 + Bortezomib; first compound 0.04 µM)	relative viability (TPCA-1 + Bortezomib; first compound 0.1265 µM)	relative viability (TPCA-1 + Bortezomib; first compound 0.4 µM)	relative viability (TPCA-1 + Bortezomib; first compound 1.265 µM)	relative viability (TPCA-1 + Bortezomib; first compound 4 µM)	relative viability ([3]; first compound 0.005 µM)	relative viability ([3]; first compound 0.01581 µM)	relative viability ([3]; first compound 0.05 µM)	relative viability ([3]; first compound 0.1581 µM)	relative viability ([3]; first compound 0.5 µM)
201T	0.691	0.753	0.82	0.662	0.69	0.495	0.431	0.478	0.425	0.455	1.12	1.1	1.19	1.12	1.12	1.17	1.12	1.17	1.24	0.937
A549	–	–	–	–	–	0.208	0.196	0.154	–	0.17	–	–	–	–	–	–	–	–	–	–
A-427	0.481	0.465	0.491	0.445	0.442	0.346	0.417	0.273	0.292	0.278	1.05	0.981	1.08	0.976	1.07	0.98	1.05	0.835	0.446	0.212
ABC-1	0.645	0.583	0.647	0.426	0.498	0.234	0.253	0.247	0.219	0.211	0.369	0.225	0.291	0.297	0.293	0.352	0.332	0.292	0.308	0.2
BEN	0.258	0.275	0.352	0.288	0.282	0.268	0.293	0.285	0.214	0.257	1.17	0.53	0.805	0.999	0.587	0.74	0.998	0.637	0.74	0.328
CAL-12T	0.64	0.886	0.709	0.335	0.547	0.651	0.672	0.562	0.585	0.574	1.07	0.941	1.03	0.767	0.607	0.806	1.27	0.888	0.794	0.618
COR-L23	0.804	0.816	0.732	0.709	0.749	0.458	0.465	0.376	0.433	0.476	1.27	0.854	0.983	0.937	0.751	1.21	1.07	–	0.697	0.464
COR-L 105	0.679	0.849	0.781	–	0.632	0.526	0.491	0.499	–	0.481	0.846	0.808	0.982	0.516	0.333	0.893	0.665	0.706	0.521	0.253
Calu-6	–	–	–	–	–	–	–	–	–	–	1.1	0.933	1.09	0.873	0.658	1.07	0.875	0.744	0.562	0.184
ChaGo-K-1	0.549	0.59	0.588	0.491	0.268	0.517	0.493	0.459	0.3	0.271	0.83	0.995	1.11	0.903	0.377	0.944	1.51	0.931	0.718	0.5
EBC-1	–	–	–	–	–	–	–	–	–	–	0.521	0.617	0.618	0.59	0.479	0.495	0.621	0.504	0.43	0.227
EKVX	0.679	0.673	0.717	0.615	0.646	0.252	0.247	0.218	0.231	0.249	0.952	0.896	1.19	0.955	0.601	1.1	1.26	0.999	1.19	0.679
EMC-BAC-2	0.411	0.383	0.432	0.337	0.389	0.549	0.513	0.558	0.521	0.521	1.12	1.07	1.11	1.08	0.932	1.1	1.11	0.942	0.678	0.279
EPLC-272H	0.349	0.284	0.285	0.238	0.265	0.289	0.318	0.298	0.238	0.276	0.96	0.974	0.962	0.87	0.821	1.02	1.15	0.603	0.828	0.486
H3255	0.585	0.589	0.541	0.568	0.566	0.377	0.324	0.352	0.34	0.309	0.872	0.758	0.701	0.595	0.691	0.773	0.982	0.648	0.903	0.351
HARA	0.525	0.437	0.502	0.379	0.57	0.449	0.452	0.481	0.444	0.407	1.08	1.13	1.14	1.03	1.07	1.21	1.33	1	0.671	0.179
HCC-15	0.769	0.684	0.683	0.548	0.665	0.516	0.467	0.545	0.445	0.442	1.21	0.944	1.06	1.01	0.817	1.04	1.28	0.868	0.868	0.194
HCC-44	0.482	0.528	0.649	0.475	0.479	0.161	0.27	0.278	0.21	0.161	0.903	0.789	0.908	0.745	0.883	0.925	0.997	0.873	1.06	0.683
HCC-78	0.372	0.404	0.431	0.37	0.326	0.654	0.78	0.945	0.603	0.695	0.437	0.439	0.531	0.27	0.281	0.47	0.488	0.425	0.283	0.29
HCC-366	1.13	1.01	1.11	0.744	0.836	0.569	0.638	0.625	0.55	0.613	1.07	0.94	1.13	0.92	0.647	1.13	1.11	0.565	1.05	0.43
HCC-827	0.813	0.767	0.809	0.737	0.695	0.426	0.414	0.433	0.411	0.388	1.06	1.06	1.09	0.964	0.89	0.923	1.08	0.989	1.11	0.647

Cell Line	relative viability ([1]; first compound 0.2 µM)	relative viability ([1]; first compound 0.6325 µM)	relative viability ([1]; first compound 2 µM)	relative viability ([1]; first compound 6.325 µM)	relative viability ([1]; first compound 20 µM)	relative viability ([2]; first compound 0.2 µM)	relative viability ([2]; first compound 0.6325 µM)	relative viability ([2]; first compound 2 µM)	relative viability ([2]; first compound 6.325 µM)	relative viability ([2]; first compound 20 µM)	relative viability (TPCA-1 + Bortezomib; first compound 0.04 µM)	relative viability (TPCA-1 + Bortezomib; first compound 0.1265 µM)	relative viability (TPCA-1 + Bortezomib; first compound 0.4 µM)	relative viability (TPCA-1 + Bortezomib; first compound 1.265 µM)	relative viability (TPCA-1 + Bortezomib; first compound 4 µM)	relative viability ([3]; first compound 0.005 µM)	relative viability ([3]; first compound 0.01581 µM)	relative viability ([3]; first compound 0.05 µM)	relative viability ([3]; first compound 0.1581 µM)	relative viability ([3]; first compound 0.5 µM)
HOP-62	0.836	0.73	0.851	0.771	0.872	0.686	0.714	0.531	0.664	0.672	0.641	0.707	0.832	0.738	0.57	0.863	0.707	0.913	1.42	0.696
IA-LM	–	–	–	–	–	–	–	–	–	–	0.834	0.804	0.847	0.781	0.559	1.08	1.18	1.08	0.943	0.339
LC-2-ad	0.817	0.941	0.984	0.708	0.785	0.632	0.584	0.671	0.555	0.605	1.11	1.01	0.94	1.04	0.371	0.966	1.2	0.882	0.407	0.329
LCLC-97TM1	0.503	0.605	0.627	0.428	0.486	0.389	0.473	0.437	0.476	0.482	0.654	0.654	0.608	0.475	0.0995	–	0.723	0.299	0.282	0.226
LCLC-103H	0.466	0.464	0.603	0.502	0.426	0.326	0.329	0.361	0.288	0.356	1.07	1.05	1.1	0.987	1.02	1.09	1.07	0.943	0.908	0.56
LK-2	0.223	0.226	0.266	0.216	0.2	0.576	0.505	0.622	0.379	0.483	–	–	–	–	–	–	–	–	–	–
LOU-NH91	0.733	0.722	0.769	0.648	0.714	0.696	0.757	0.843	0.67	0.736	0.508	0.514	0.502	0.523	0.574	0.486	0.549	0.53	0.511	0.373
NCI-H358	0.807	0.801	0.914	–	0.651	0.358	0.303	0.428	–	0.281	–	–	–	–	–	–	–	–	–	–
NCI-H522	0.793	0.715	0.841	0.518	0.727	0.677	0.649	0.662	0.644	0.651	–	–	–	–	–	–	–	–	–	–
NCI-H1299	–	–	–	–	–	–	–	–	–	–	1.02	0.961	1.01	0.981	1.07	1.04	0.982	1.03	0.843	0.751
NCI-H1395	0.672	0.614	0.772	0.597	0.643	0.448	0.484	0.505	0.483	0.465	–	–	–	–	–	–	–	–	–	–
NCI-H1623	0.455	0.465	0.445	0.434	0.405	0.644	0.577	0.502	0.599	0.59	–	–	–	–	–	–	–	–	–	–
NCI-H1648	0.282	0.269	0.307	–	0.258	–	–	–	–	–	–	–	–	–	–	–	–	–	–	–
NCI-H1703	–	–	–	–	–	–	–	–	–	–	0.299	0.385	0.394	0.41	0.367	0.31	0.359	0.308	0.137	0.117
NCI-H1793	0.333	0.303	0.322	0.202	0.31	0.375	0.351	0.515	0.337	0.355	–	–	–	–	–	–	–	–	–	–
NCI-H1944	0.464	0.409	0.464	0.408	0.425	0.232	0.207	0.2	0.18	0.182	–	–	–	–	–	–	–	–	–	–
NCI-H2170	0.713	0.728	0.77	0.416	0.785	0.466	0.484	0.426	0.405	0.408	–	–	–	–	–	–	–	–	–	–
NCI-H2342	0.626	0.644	0.741	0.52	0.607	0.535	0.63	0.689	0.524	0.519	–	–	–	–	–	–	–	–	–	–
SK-MES-1	0.598	0.689	0.627	0.55	0.616	0.722	0.742	0.605	0.644	0.546	–	–	–	–	–	–	–	–	–	–
SW 900	0.63	0.492	0.612	0.531	0.796	0.613	0.551	0.875	0.69	0.541	–	–	–	–	–	–	–	–	–	–
